Laboratory results taken from PubChem BioAssay (NCI).
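Interpolation was linear, between the two tested concentrations surrounding the appropriate level; five concentrations were tested over 48 hours in 96-well plates. TGI marks complete inhibition of growth.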

Columns and labels:
Assay in all cases: growth of human tumour cells (NCI), 48 h
[1] = system: SW-620 colon
[2] = system: NCI-H226 lung
[3] = system: HT29 colon
[4] = system: KM12 colon
[5] = system: HOP-62 NSCLC
[6] = system: COLO 205 colon
[7] = system: BT-549 breast
[8] = system: SF-295 CNS
[9] = system: SNB-19 CNS
[10] = system: M14 melanoma
[11] = system: OVCAR-8 ovarian
[12] = system: CAKI-1 renal
[13] = system: K-562 leukemia
[14] = system: HS 578T breast
[15] = system: HL-60(TB) leukemia
[16] = system: MALME-3M melanoma
[17] = system: NCI-H23 lung
[18] = system: UO-31 renal
[19] = system: NCI-H522 lung
[20] = system: PC-3 prostate
[21] = system: OVCAR-3 ovarian
[22] = system: HCC-2998 colon
[23] = system: UACC-257 melanoma
[24] = system: HCT-15 colon
[25] = system: SK-MEL-5 melanoma
[26] = system: HCT-116 colon
[27] = system: SN12C renal
[28] = system: OVCAR-4 ovarian
[29] = system: SF-268 CNS
[30] = system: DU-145 prostate
[31] = system: ACHN renal
[32] = system: NCI-H460 lung
[33] = system: MDA-N
[34] = system: 786-0 renal
[35] = system: T-47D breast
[36] = system: U251 CNS
[37] = system: MCF7 breast
[38] = system: CCRF-CEM leukemia
[39] = system: SF-539 CNS
[40] = system: UACC-62 melanoma
[41] = system: SK-OV-3 ovarian
[42] = system: MDA-MB-231 breast
[43] = system: NCI/ADR-RES ovarian
[44] = system: OVCAR-5 ovarian
[45] = system: SK-MEL-28 melanoma
[46] = system: EKVX NSCLC
[47] = system: MOLT-4 leukemia
[48] = system: A498 renal
[49] = system: IGROV1 ovarian
[50] = system: A549 NSCLC
[51] = system: TK-10 renal
[52] = system: SR leukemia
[53] = system: MDA-MB-435
[54] = system: HOP-92 NSCLC
[55] = system: SK-MEL-2 melanoma
[56] = system: RXF 393 renal
[57] = system: SNB-75 CNS
[58] = system: LOX IMVI melanoma
[59] = system: RPMI-8226 leukemia

## COC(=O)c1c(O)c2c(c3c1OC(C)(C)CC3)OC(C)(C)CC2
[1]
  TGI: 32.1 µM
[2]
  TGI: 35.9 µM
[3]
  TGI: 31.4 µM
[4]
  TGI: 31.6 µM
[5]
  TGI: 42.7 µM
[6]
  TGI: 28.2 µM
[7]
  TGI: 37.2 µM
[8]
  TGI: 32.2 µM
[9]
  TGI: 34.9 µM
[10]
  TGI: 41 µM
[11]
  TGI: 33.3 µM
[12]
  TGI: 53.9 µM
[13]
  TGI: 69.8 µM
[14]
  TGI: 47.2 µM
[15]
  TGI: 40.3 µM
[16]
  TGI: 20.9 µM
[17]
  TGI: 43.4 µM
[18]
  TGI: 37.4 µM
[19]
  TGI: 34.2 µM
[20]
  TGI: 35.7 µM
[21]
  TGI: 36.3 µM
[22]
  TGI: 31.2 µM
[23]
  TGI: 50.8 µM
[24]
  TGI: 35.5 µM
[25]
  TGI: 28.2 µM
[26]
  TGI: 30.4 µM
[27]
  TGI: 32.6 µM
[28]
  TGI: 97.7 µM
[29]
  TGI: 60.7 µM
[30]
  TGI: 74.7 µM
[31]
  TGI: 32.3 µM
[32]
  TGI: 50.6 µM
[33]
  TGI: 51.9 µM
[34]
  TGI: 31.1 µM
[35]
  TGI: 39.5 µM
[36]
  TGI: 29.6 µM
[37]
  TGI: 33.1 µM
[38]
  TGI: 55.6 µM
[39]
  TGI: 36 µM
[40]
  TGI: 40 µM
[41]
  TGI: 77.1 µM
[42]
  TGI: 30 µM
[43]
  TGI: 56.2 µM
[44]
  TGI: 35.2 µM
[45]
  TGI: 68.8 µM
[46]
  TGI: 45.8 µM
[47]
  TGI: 56.1 µM
[48]
  TGI: 34.4 µM
[49]
  TGI: 42.8 µM
[50]
  TGI: 42.7 µM

## Cc1cc(C)nc(NS(=O)(=O)c2ccc(NNc3c4ccccc4nc4c(C(=O)Nc5ccc(S(=O)(=O)N=C(N)N)cc5)cccc34)cc2)n1
[51]
  TGI: > 100 µM
[52]
  TGI: 76.1 µM
[1]
  TGI: > 100 µM
[2]
  TGI: > 100 µM
[3]
  TGI: 77.7 µM
[4]
  TGI: > 100 µM
[5]
  TGI: > 100 µM
[53]
  TGI: > 100 µM
[6]
  TGI: > 100 µM
[54]
  TGI: > 100 µM
[7]
  TGI: > 100 µM
[55]
  TGI: 61.5 µM
[8]
  TGI: > 100 µM
[9]
  TGI: > 100 µM
[56]
  TGI: > 100 µM
[57]
  TGI: > 100 µM
[10]
  TGI: > 100 µM
[11]
  TGI: > 100 µM
[12]
  TGI: > 100 µM
[13]
  TGI: > 100 µM
[15]
  TGI: > 100 µM
[16]
  TGI: > 100 µM
[17]
  TGI: > 100 µM
[18]
  TGI: > 100 µM
[19]
  TGI: > 100 µM
[20]
  TGI: > 100 µM
[21]
  TGI: 96.8 µM
[22]
  TGI: > 100 µM
[23]
  TGI: > 100 µM
[24]
  TGI: > 100 µM
[58]
  TGI: > 100 µM
[25]
  TGI: > 100 µM
[26]
  TGI: > 100 µM
[27]
  TGI: > 100 µM
[59]
  TGI: > 100 µM
[28]
  TGI: > 100 µM
[29]
  TGI: > 100 µM
[30]
  TGI: > 100 µM
[31]
  TGI: > 100 µM
[32]
  TGI: > 100 µM
[33]
  TGI: > 100 µM
[34]
  TGI: > 100 µM
[35]
  TGI: > 100 µM
[36]
  TGI: 96.8 µM
[37]
  TGI: > 100 µM
[38]
  TGI: 98 µM
[39]
  TGI: > 100 µM
[41]
  TGI: > 100 µM
[42]
  TGI: > 100 µM
[43]
  TGI: > 100 µM
[44]
  TGI: > 100 µM
[45]
  TGI: 85 µM
[46]
  TGI: > 100 µM
[47]
  TGI: > 100 µM
[49]
  TGI: > 100 µM
[50]
  TGI: > 100 µM

## COc1cc(/C=C2/SC(c3ccccc3)N(c3cc(Cl)ccc3Cl)C2=O)cc(OC)c1OC (configuration not stated)
[51]
  TGI: > 100 µM
[52]
  TGI: > 100 µM
[1]
  TGI: > 100 µM
[2]
  TGI: > 100 µM
[3]
  TGI: > 100 µM
[4]
  TGI: > 100 µM
[5]
  TGI: > 100 µM
[53]
  TGI: 61.1 µM
[6]
  TGI: > 100 µM
[54]
  TGI: > 100 µM
[7]
  TGI: > 100 µM
[55]
  TGI: > 100 µM
[8]
  TGI: > 100 µM
[9]
  TGI: > 100 µM
[56]
  TGI: > 100 µM
[57]
  TGI: > 100 µM
[10]
  TGI: > 100 µM
[11]
  TGI: > 100 µM
[12]
  TGI: 90.8 µM
[13]
  TGI: > 100 µM
[15]
  TGI: > 100 µM
[16]
  TGI: > 100 µM
[17]
  TGI: > 100 µM
[18]
  TGI: > 100 µM
[19]
  TGI: > 100 µM
[20]
  TGI: > 100 µM
[21]
  TGI: > 100 µM
[22]
  TGI: > 100 µM
[23]
  TGI: > 100 µM
[24]
  TGI: > 100 µM
[58]
  TGI: > 100 µM
[25]
  TGI: > 100 µM
[26]
  TGI: > 100 µM
[27]
  TGI: > 100 µM
[59]
  TGI: > 100 µM
[28]
  TGI: > 100 µM
[30]
  TGI: > 100 µM
[31]
  TGI: > 100 µM
[32]
  TGI: > 100 µM
[33]
  TGI: 37.6 µM
[34]
  TGI: > 100 µM
[35]
  TGI: > 100 µM
[36]
  TGI: > 100 µM
[37]
  TGI: > 100 µM
[38]
  TGI: > 100 µM
[40]
  TGI: > 100 µM
[41]
  TGI: > 100 µM
[42]
  TGI: > 100 µM
[43]
  TGI: > 100 µM
[44]
  TGI: > 100 µM
[45]
  TGI: > 100 µM
[46]
  TGI: > 100 µM
[47]
  TGI: > 100 µM
[48]
  TGI: > 100 µM
[49]
  TGI: > 100 µM
[50]
  TGI: > 100 µM
